Assay results: patent US20190054093A1, “TREATMENT OF SARCOPENIA WITH ECDYSTEROIDS” (priority 2014, published 2019)
Like-named read-outs stand apart in the source and are kept apart here.

Legend:
[1] = system: MCF7-AR1 cells; test: A-Screen bioassay: androgen-dependent inhibition of E2-induced proliferation; assay type: cell-based; conditions: Homo sapiens; in the presence of E2; read-out: IC50 of inhibition of cell proliferation
Description: In this example ATE and RCE were assessed for androgenic activity using the A-screeen assay. MCF7-AR1 is a human cancer-derived cell line which has been genetically engineered to overexpress the androgenic receptor (AR). […] This assay measures androgen-dependent inhibition of proliferation of the androgen receptor (AR)-positive human mammary carcinoma cell line, MCF7-AR1. This cell line has been stably transfected with a full human AR and expresses approximately five times more AR than wild-type cells. MCF7-AR1 cells retain the capacity to proliferate in response to estrogen treatment (E2). Androgens inhibit estrogen-induced proliferation and cells arrest in G0/G1 phase in a dose-dependent manner.
The A-Screen bioassay compares the cell number of similar inocula of MCF-7-AR1 cells growing in media in the absence of any estrogen and androgens (C−, negative control), in the presence of E2 (C+, estrogen control) and in the presence of E2 in combination with different concentrations of the suspected androgen (FIG. 11). Androgenic activity of a test compound results in the inhibition of cell proliferation compared to the E2 control.

[2] = system: protein synthesis in mouse liver; conditions: actinomycin D 2 mg/kg 30 minutes before the test substance; cited from earlier work
[3] = system: polyribosomes from the livers of mice; conditions: cited from earlier work
[4] = system: myostatin (Mstn) gene expression in C2C12 muscle cells; test: Myostatin gene expression in C2C12 myotubes (RT2 Profiler PCR Array, Example 1); assay type: cell-based, mouse; conditions: 20 ppm ATE or 1 μM methandrostenolone, 6 h
Description: (§1) The effect of Ajuga turkestanica extract (ATE) standardized to Turkesterone content was studied in muscle cells. […] Cells between passages 3 and 10 were seeded at a density of 10,000 cells per cm^2. Cells were grown for 48 h until they reached 80-90% confluence. […] Cells were maintained at 37° C. in a humidified 5% CO2 incubator and medium was changed every other day.
(§2) For RNA extraction, C2C12 cells were plated and differentiated to myotubes into 12-wells plates. […] RNA was then extracted using an All Prep RNA/Protein Kit (Qiagen, Spain). Total RNA was quantified using a fluorometric method with Quant-iT kit (Invitrogen, Spain). RNA was stored at −80° C. until further use. cDNA was reverse-transcribed from the RNA extract using RT^2 First Stand cDNA kit and we used a RT^2 Profiler PCR Array to analyze a panel of 84 genes involved in skeletal muscle development and disease (Qiagen, Spain). Quantitative real-time RT-PCR was carried out using a SYBR-Green/ROX detection in a MX3005P Q-PCR System. Samples were heated at 95° C. for 10 min, followed by a second stage composed of 15 sec at 95° C., 1 min at 60° C. which was repeated 40 times and third stage for dissociation curve composed of 1 min at 95° C., 30 sec at 55° C. and 30 sec at 95° C. The PCR-array data was analyzed by calculating relative gene expression and statistical significance through the use of known methods.

[5] = system: Caspase-3 (Casp3) gene expression in C2C12 muscle cells; test: Caspase-3 gene expression in C2C12 myotubes (RT2 Profiler PCR Array, Example 1); assay type: cell-based, mouse; conditions: 20 ppm ATE or 1 μM methandrostenolone, 6 h
Description: as §1, §2

[6] = system: C2C12 myotubes; test: Protein synthesis by radio-labeled leucine incorporation in C2C12 myotubes (Example 3); assay type: cell-based, mouse
[7] = cited from earlier work
[8] = system: Caspase-3 expression in C2C12 myotubes; test: Caspase 3 expression in C2C12 myotubes (quantitative RT-PCR, Example 4); assay type: cell-based, mouse; conditions: 24 hours; extracts and turkesterone 0.002, 0.02 and 2 ppm, 20HE 0.001, 0.01 and 1 ppm
Description: Experiments similar to those in example 1 have been carried out with two other plant-derived, ecdysteroid-rich extracts. […] Cells between passages 3 and 10 were seeded at a density of 10,000 cells per cm^2. Cells were grown for 48 h until they reached 80-90% confluence. […] Cells were maintained at 37° C. in a humidified 5% CO2 incubator and medium was changed every other day.
For RNA and protein extraction C2C12 myotubes were incubated with 0.002, 0.02 and 2 ppm of Rhaponticum carthamoides extract (RCE) and Cyanotis arachnoidea extract (CAE) or 0.001, 0.01 and 1 ppm of 20-hydroxyecdysone or 0.002, 0.02 and 2 ppm of Turkesterone for 24 hours. These two latter served as positive controls. RNA and protein were extracted using All Prep RNA/Protein Kit (Qiagen, Spain). RNA was stored at −80° C. and protein at −20° C. until further use. Total RNA was quantified using a fluorometric method with Quant-iT kit (Invitrogen, Spain). The cDNA was reverse-transcribed from the RNA extract using RT^2First Stand cDNA kit (Qiagen, Spain). Quantitative real-time RT-PCR for Caspase-3 and Myostatin were carried out using a MX3005P Q-PCR System (Agilent Technologies) and SYBR-Green/ROX detection. The housekeeping gene used was Actb and Mouse XpressRef Universal total RNA (Qiagen, Spain) as a positive control. […] The fold change in gene expression was calculated with ΔΔCt Method.

[9] = cited from earlier work; for effect on the sexual apparatus (ventral prostate weight, seminal vesicle weight): sexually immature intact rats
[10] = castrated sexually immature rats
[11] = sexually immature intact rats, 0.5 mg per 100 g intragastrically daily for 10 days
[12] = sexually mature male rats, 0.5 mg per 100 g intragastrically daily for 10 days

Molecule | IC50 [1] [nM] | effect of actinomycin D on the stimulation of liver protein synthesis [2] | ratio of test to control (weight gain) [7, 10] | weight gain [7, 11] | ratio of test to control (weight gain) ([7]; sexually immature intact rats) | total protein content of organs ([7]; sexually immature intact rats) | weight of the ventral prostate and seminal vesicles [9, 10] | effect on the sexual apparatus (ventral prostate weight, seminal vesicle weight) [9] | weight of the ventral prostate and seminal vesicles [9, 12] | other results
C[C@]1(O)CC[C@H]2[C@@H]3CCC4=CC(=O)CCC4=C3C=C[C@@]21C [Example R1881, methyltrienolone] | 0.02 |  |  |  |  |  |  |  |  | 
C[C@]12C=CC(=O)C=C1CC[C@@H]1[C@@H]2CC[C@@]2(C)[C@H]1CC[C@]2(C)O [Nerobol] |  | almost totally removed the effect |  |  |  |  |  |  |  | increase of protein synthesis in the system of polyribosomes and cellular fluid from livers of treated animals ([3]; mice, Nerobol 1.0 mg/100 g, P<0.001): 14%
C[C@]12C=CC(=O)C=C1CC[C@@H]1[C@@H]2CC[C@@]2(C)[C@H]1CC[C@]2(C)O [methandrostenolone] | 0.35 |  |  |  |  |  |  |  |  | down-regulation of Myostatin [4]: < 2 fold; down-regulation of caspase-3 [5]: < 2 fold; effect on protein synthesis ([6]; concentrations up to 10 μM): no significant effect
CC(C)(O)CC[C@@H](O)[C@](C)(O)[C@H]1CC[C@@]2(O)C3=CC(=O)[C@@H]4C[C@@H](O)[C@@H](O)C[C@]4(C)[C@H]3[C@H](O)C[C@]12C [turkesterone] |  | no noticeable effect | 1.8 | 38 mg per 1 g initial weight per day | 2.6 | statistically significant increase | did not change | pronounced effect | did not change significantly | body weight gain [7, 12]: 9.7 mg per 1 g weight per day; body weight gain relative to control [7, 12]: 2 times; regulation of Caspase 3 expression [8]: significant effect in down regulation; ratio of translating to nontranslating ribosomes ([3]; mouse liver, control group 3.98): 3.80; protein synthesis, % of control ([6]; 40 nM): 110 % of control; protein synthesis, % of control (peak effect) ([6]; 0.1 μM): 120 % of control
turkesterone tetraacetate |  |  | 1.9 | 37.2 mg per 1 g initial weight per day | 2.5 | statistically significant increase | did not change | pronounced effect | did not change significantly | heart weight and weight of the anterior tibial muscle [7, 12]: statistically significant increase
